Columns and labels:
[1] = system: MDA-MB231 cells; test: Cell death, IncuCyte propidium iodide live-cell imaging; assay type: cell-based, human; conditions: 48 hours, increasing concentrations
[2] = system: RPTEC cells; test: as above; assay type: cell-based; conditions: 48 hours, 1 μM AB668 with 5 μM tariquidar (n=5)
[3] = system: 786-O and RPTEC cells; test: Immunoblotting of CK2-dependent substrate phosphorylation and apoptosis markers; assay type: cell-based; conditions: 48 hours or 24 hours, increasing concentrations
[4] = system: 786-O cells; test: Cell death, IncuCyte propidium iodide live-cell imaging; assay type: cell-based, human
[5] = system: A549 and MDA-MB231 cells; test: Immunoblotting of CK2-dependent substrate phosphorylation and apoptosis markers; assay type: cell-based, human; conditions: A549 24 hours, MDA-MB231 48 hours
[6] = system: MCF10-A cells (WT and CK2β-depleted); test: Cell death, IncuCyte propidium iodide live-cell imaging; assay type: cell-based; conditions: n=5
[7] = molecular target: CK2 (Homo sapiens (Human), UniProt P68400); test: Radiometric CK2 kinase assay; assay type: biochemical
Chain of CK2 (P68400 whole entry): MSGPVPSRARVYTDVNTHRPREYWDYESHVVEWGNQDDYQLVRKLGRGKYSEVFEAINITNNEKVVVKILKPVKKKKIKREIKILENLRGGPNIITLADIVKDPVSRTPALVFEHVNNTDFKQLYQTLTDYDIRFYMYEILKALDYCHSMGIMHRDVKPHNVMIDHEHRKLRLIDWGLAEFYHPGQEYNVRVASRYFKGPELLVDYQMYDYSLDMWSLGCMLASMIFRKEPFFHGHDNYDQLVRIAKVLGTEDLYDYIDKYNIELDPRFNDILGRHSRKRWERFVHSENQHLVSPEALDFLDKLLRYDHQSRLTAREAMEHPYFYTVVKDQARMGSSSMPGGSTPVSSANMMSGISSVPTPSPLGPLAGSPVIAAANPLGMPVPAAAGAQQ

SMILES	Sensitivity to compound-mediated cell death, MDA-MB231 versus normal MCF10A [1]	Effect of P-glycoprotein inhibitor tariquidar on compound effect [2]	CK2-dependent substrate phosphorylation and apoptosis (western blot) [3]	Cell death induction in RCC lines compared to normal cells ([4]; 24 hours, 786-O (VHL+/−) at 1 μM, RPTEC at 10 μM (n=5))	Sensitivity to compound-mediated cell death, 786-O versus RPTEC or HEK 293 ([4]; 36 hours, increasing concentrations (n=4 to 6))	Cell death induction compared to CX-4945 and sunitinib ([4]; at 5 and 2.5 μM)	CK2-dependent substrate phosphorylation and apoptosis (western blot) [5]	Cell death in CK2β-depleted versus WT cells [6]	IC50 [7] [nM]	Mechanism of CK2 inhibition with respect to ATP ([7]; Lineweaver-Burk analysis (n=2))	Mechanism of inhibition towards CK2β ([7]; Lineweaver-Burk analysis (n=2))
CC(C)COC(=O)c1[nH]c2ccc(F)cc2c1-c1cn(CC2CCN(CCNS(=O)(=O)c3ccc(CC(C)C)cc3)CC2)nn1 [AB668, Isobutyl 5-fluoro-3-(1-((1-(2-((4-isobutylphenyl)sulfonamido)ethyl)piperidin-4-yl)methyl)-1H-1,2,3-triazol-4-yl)-1H-indole-2-carboxylate]	much more sensitive	has not changed the effect of AB668	inhibit CK2-dependent substrate phosphorylation in cells and induce apoptosis	much more efficient in inducing cell death in RCC lines	much more sensitive	much more efficient in inducing cell death	inhibit CK2-dependent substrate phosphorylation and induce apoptosis in different cancer cell lines	more pronounced in CK2β-depleted cells than in WT cells			
CCOC(=O)c1[nH]c2ccc(F)cc2c1-c1cn(CC2CCN(CCNS(=O)(=O)c3ccc(CC)cc3)CC2)nn1 [AB526, Ethyl 3-(1-((1-(2-((4-ethylphenyl)sulfonamido)ethyl)piperidin-4-yl)methyl)-1H-1,2,3-triazol-4-yl)-5-fluoro-1H-indole-2-carboxylate]	much more sensitive		inhibit CK2-dependent substrate phosphorylation in cells and induce apoptosis				inhibit CK2-dependent substrate phosphorylation and induce apoptosis in different cancer cell lines		300	non-ATP competitive mechanism of CK2 inhibition	mixed competitive inhibition towards CK2β

Reference: patent publication US20230278983A1, “INDOLE DERIVATIVES AND USES THEREOF FOR TREATING A CANCER” (Universite Claude Bernard Lyon 1, priority 2020, published 2023)
